Results on twelve molecules are retold here after ChEMBL document CHEMBL5727862, “Inhibitors of plasma kallikrein and uses thereof” (2020).

Where only a bound is given, the exact number is not on record here.

A short description of the test: Inhibitory Activity of Exemplary Compounds against Plasma Kallikrein: Example compounds were evaluated for inhibition of the human activated kallikrein enzyme in two formats of an assay employing a fluorogenic peptide substrate. In one assay format, the concentrations of reagents were as follows: 20 mM Tris pH 7.5, 1 mM EDTA, 150 mM sodium chloride, 0.1% PEG-400, 0.1% Triton X-100, 500 pM activated kallikrein enzyme, 300 uM Pro-Phe-Arg-7-amido-4-methylcoumarin substrate. Prior to reaction initiation with substrate, enzyme and inhibitors were preincubated for 30 min at RT. After initiation with substrate, reactions were incubated for 10 min at RT and fluorescence emission at 460 nm from 380 nm excitation measured with a microplate reader. In another assay format, the concentrations of reagents were as follows: 20 mM Tris pH 7.5, 1 mM EDTA, 150 mM sodium chloride, 0.1% PEG-400, 0.1% Triton X-100, 5 pM activated kallikrein enzyme, 300 uM Pro-Phe-Arg-7-amido-4-methylcoumarin substrate. Prior to reaction initiation with substrate, enzyme and inhibitors were preincubated for 30 min at RT. After initiation with substrate, reactions were incubated for 18 h at RT and fluorescence emission at 460 nm from 380 nm excitation measured with a microplate reader.

In the case of `O=C(NCc1ncn2ccc(Cl)c(F)c12)c1cn(Cc2cn3cc(C4CC4)ccc3n2)c(C(=O)O)n1`, the concentration giving a half-maximal response (EC50) is < 1 nM.
Take `O=C(NCc1cn2c(F)c(Cl)ccc2n1)c1cn(Cc2cn3cc(C4CC4)cc(Cc4nnco4)c3n2)nn1`: the EC50 is < 1 nM.
The same measure for `CC(c1cn2cc(C3CC3)cc(C3CCC(=O)O3)c2n1)n1cc(C(=O)NCc2ncn3ccc(Cl)c(F)c23)nn1` (configuration not stated): < 1 nM; for `O=C(OCc1ccccc1)c1cnn(Cc2cn3cc(C4CC4)cc(CO)c3n2)c1`: < 1 nM; for `CCOC(=O)C1CN(c2cc(C3CC3)cn3cc(Cn4cc(C(=O)NCc5ncn6ccc(Cl)c(F)c56)nn4)nc23)CCO1` (configuration not stated): < 1 nM.
The same measure for `O=C(NCc1ncn2ccc(Cl)c(F)c12)c1cn(Cc2cn3cc(C4CC4)cc(CCl)c3n2)nn1`: < 1 nM.
The same measure for `CCOC(=O)c1cc(C2CC2)cn2cc(Cn3cc(C(=O)NCc4ncn5ccc(Cl)c(F)c45)nn3)nc12`: < 1 nM; for `CC(C)(C)OC(=O)c1ncc(-c2cc(C3CC3)cn3cc(Cn4cc(C(=O)NCc5ncn6ccc(Cl)c(F)c56)nn4)nc23)s1`: < 1 nM.
As for `O=C(NCc1ncn2ccc(Cl)c(F)c12)c1cn(Cc2cn3nc(C4CC4)cc(CN4CCCC4)c3n2)nn1`, the EC50 is < 1 nM.
In the case of `CCOC(=O)c1cc(C2CC2)cn2cc(Cn3cc(C(=O)NCc4ncn5ccc(Cl)cc45)cn3)nc12`, the half-maximal effective concentration (EC50) is < 1 nM.
Turning to `CCOC(=O)c1ccn(Cc2cc(C3CC3)cn3cc(Cn4cc(C(=O)NCc5ncn6ccc(Cl)c(F)c56)nn4)nc23)n1`, the EC50 was < 1 nM.
The same measure for `O=C(NCc1cn2c(F)c(Cl)ccc2n1)c1cn(Cc2cn3cc(C4CC4)cc(Cc4nnc(C(=O)O)o4)c3n2)nn1`: < 1 nM.

In general, EC50 refers to the concentration at which the effect is half-maximal. A higher EC50 goes with weaker potency.
